Results reported in ChEMBL document CHEMBL5505993, “Identification of a ferritinophagy inducer via sinomenine modification for the treatment of colorectal cancer” (Eur J Med Chem, 2024).
The source made the active and inactive calls. No cut-off for these calls is given here.

What was measured:
HCT-116 [1] = experiment: Induction of ferritin autophagy in human HCT-116 cells assessed as upregulation of NCOA4 protein expression at 5 to 20 uM incubated for 12 hrs by Western blotting analysis; type: functional, cell-based; conditions: dose 5-20 µM
HCT-116 [2] = experiment: Induction of ferroptosis in human HCT-116 cells assessed as effect on ACSL4 protein expression at 5 to 20 uM incubated for 12 hrs by Western blotting analysis; type: functional, cell-based; conditions: dose 5-20 µM
HCT-116 [3] = experiment: Induction of ferroptosis in human HCT-116 cells assessed as effect on GSH level at 5 to 20 uM incubated for 12 hrs; type: functional, cell-based; conditions: dose 5-20 µM
HCT-116 [4] = experiment: Induction of ferroptosis in human HCT-116 cells assessed as effect on AIFM2 protein expression at 5 to 20 uM incubated for 12 hrs by Western blotting analysis; type: functional, cell-based; conditions: dose 5-20 µM
HCT-116 [5] = experiment: Induction of ferroptosis in human HCT-116 cells assessed as increase in intracellular ferrous ion level at 20 uM incubated for 12 hrs in presence of ferroptosis inhibitor, deferoxamine mesylate by ferroOrange probe based flow cytometric analysis; type: functional, cell-based
HCT-116 [6] = experiment: Induction of ferroptosis in human HCT-116 cells assessed as effect on SLC7A11 protein expression at 5 to 20 uM incubated for 12 hrs by Western blotting analysis; type: functional, cell-based; conditions: dose 5-20 µM
HCT-116 [7] = experiment: Antitumor activity against human HCT-116 cells xenografted in BALB/c mouse assessed as reduction in tumor growth at 60 mg/kg,ip administrated daily for 14 days; type: functional, organism-based; conditions: time 14.0 day
[8] = Toxicity in BALB/c mouse xenografted with human HCT-116 cells assessed as histopathological changes in liver at 30 mg/kg,ip administrated daily for 14 days by hematoxylin and eosin staining based microscopic analysis; type: organism-based; conditions: in vivo, 336 h, time 14 day
HCT-116 [9] = experiment: Antitumor activity against human HCT-116 cells xenografted in BALB/c mouse assessed as increase in FTH1 expression at 60 mg/kg,ip administrated daily for 14 days by immunohistochemistry; type: functional, organism-based; conditions: time 14.0 day
HCT-116 [10] = experiment: Antitumor activity against human HCT-116 cells xenografted in BALB/c mouse assessed as reduction in tumor volume at 30 mg/kg,ip administrated daily for 14 days; type: functional, organism-based; conditions: time 14.0 day
HCT-116 [11] = experiment: Induction of ROS production in human HCT-116 cells incubated for 12 hrs by DCFH-DA probe based flow cytometry; type: functional, cell-based
HCT-116 [12] = experiment: Induction of […] ROS production in human HCT-116 cells incubated for 12 hrs by DCFH-DA probe based flow cytometry; type: functional, cell-based
[13] = Toxicity in BALB/c mouse xenografted with human HCT-116 cells assessed as histopathological changes in spleen at 30 mg/kg,ip administrated daily for 14 days by hematoxylin and eosin staining based microscopic analysis; type: organism-based; conditions: in vivo, 336 h, time 14 day
HCT-116 [14] = experiment: Induction of ferroptosis in human HCT-116 cells assessed as increase in 4-HNE level in presence of Ferrostatin-1 at 20 uM by ELISA; type: functional, cell-based
HCT-116 [15] = experiment: Induction of ferroptosis in human HCT-116 cells assessed as increase in intracellular ferrous ion level incubated for 12 hrs by ferroOrange probe based flow cytometric analysis; type: functional, cell-based
HCT-116 [16] = experiment: Induction of ferroptosis in human HCT-116 cells assessed as effect on GPX4 protein expression at 5 to 20 uM incubated for 12 hrs by Western blotting analysis; type: functional, cell-based; conditions: dose 5-20 µM
HCT-116 [17] = experiment: Induction of autophagy in human HCT-116 cells assessed as formation of autophagosomes at 20 uM incubated for 12 hrs in presence of Bafilomycin A1 by confocal microscopic analysis; type: functional, cell-based
HCT-116 [18] = experiment: Induction of ferroptosis in human HCT-116 cells assessed as increase in intracellular lipid ROS accumulation at 5 to 20 uM incubated for 12 hrs by C11 BODIPY probe based flow cytometry; type: functional, cell-based; conditions: dose 5-20 µM
HCT-116 [19] = experiment: Induction of autophagy in human HCT-116 cells transfected with mRFP-GFP-LC3B assessed as colocalization of lysosome with LC3B protein at 20 uM incubated for 12 hrs by Lyso tracker red staining based confocal fluorescence microscopic analysis; type: functional, cell-based
HCT-116 [20] = experiment: Induction of ferritin autophagy in human HCT-116 cells assessed as upregulation of FTH1 protein expression at 20 uM incubated for 12 hrs in presence of autophagy inhibitor, Bafilomycin A1 by Western blotting analysis; type: functional, cell-based
HCT-116 [21] = experiment: Induction of autophagy in human HCT-116 cells transfected with mRFP-GFP-LC3B assessed as formation of autophagosomes by measuring reduction in GFP to mRFP fluorescence ratio at 5 to 20 uM incubated for 12 hrs by Lyso tracker red staining based confocal fluorescence microscopic analysis; type: functional, cell-based; conditions: dose 5-20 µM
HCT-116 [22] = experiment: Antitumor activity against human HCT-116 cells xenografted in BALB/c mouse assessed as presence of pyknotic nucleus at 60 mg/kg,ip administrated daily for 14 days by hematoxylin and eosin staining based microscopic analysis; type: functional, organism-based; conditions: time 14.0 day
HCT-116 [23] = experiment: Antitumor activity against human HCT-116 cells xenografted in BALB/c mouse assessed as reduction in tumor growth at 30 mg/kg,ip administrated daily for 14 days; type: functional, organism-based; conditions: time 14.0 day
HCT-116 [24] = experiment: Antitumor activity against human HCT-116 cells xenografted in BALB/c mouse assessed as increase in 4-HNE level in tumor at 60 mg/kg,ip administrated daily for 14 days by ELISA; type: functional, organism-based; conditions: time 14.0 day
HCT-116 [25] = experiment: Antiproliferative activity against human HCT-116 cells assessed as reduction in number of EdU-positive cell at 5 to 20 uM incubated for 9 hrs by Edu staining based analysis; type: functional; conditions: dose 5-20 µM
HCT-116 [26] = experiment: Induction of ferroptosis in human HCT-116 cells assessed as effect on p53 protein expression at 5 to 20 uM incubated for 12 hrs by Western blotting analysis; type: functional, cell-based; conditions: dose 5-20 µM
HCT-116 [27] = experiment: Induction of ferroptosis in human HCT-116 cells assessed as increase in 4-HNE level at 20 uM by ELISA; type: functional, cell-based
HCT-116 [28] = experiment: Induction of autophagy in human HCT-116 cells assessed as increase in intracellular ferrous ion level at 20 uM incubated for 12 hrs by Lyso tracker green staining based confocal microscopic analysis; type: functional, cell-based
HCT-116 [29] = experiment: Antitumor activity against human HCT-116 cells xenografted in BALB/c mouse assessed as reduction in tumor weight at 30 mg/kg,ip administrated daily for 14 days; type: functional, organism-based; conditions: time 14.0 day
HCT-116 [30] = experiment: Antitumor activity against human HCT-116 cells xenografted in BALB/c mouse assessed as presence of pyknotic nucleus at 30 mg/kg,ip administrated daily for 14 days by hematoxylin and eosin staining based microscopic analysis; type: functional, organism-based; conditions: time 14.0 day
HCT-116 [31] = experiment: Cytotoxicity against human HCT-116 cells assessed as inhibition of cell growth incubated for 12 to 48 hrs by CCK-8 assay; type: functional, cell-based; conditions: time 12-48 hrs
HCT-116 [32] = experiment: Induction of autophagy in human HCT-116 cells assessed as increase in intracellular ferrous ion level at 20 uM incubated for 12 hrs in presence of autophagy inhibitor, Bafilomycin A1 by Lyso tracker green staining based confocal microscopic analysis; type: functional, cell-based
HCT-116 [33] = experiment: Induction of ferroptosis in human HCT-116 cells assessed as increase in 4-HNE level in presence of deferoxamine mesylate at 20 uM by ELISA; type: functional, cell-based
HCT-116 [34] = experiment: Cytotoxicity against human HCT-116 cells assessed as inhibition of cell growth incubated for 48 hrs by CCK-8 assay; type: functional, cell-based; conditions: HCT-116, 48 h
HCT-116 [35] = experiment: Inhibition of colony formation in human HCT-116 cells incubated for 12 hrs by crystal violet staining based analysis; type: functional, cell-based

C=C(Cl)C(=O)NCCCCCCCCCCCC(=O)Oc1c(OC)ccc2c1[C@@]13CCN(C)[C@@H](C2)[C@H]1C=C(OC)C(=O)C3
Activity (HCT-116 [1]): inactive | Activity (HCT-116 [2]): inactive | Activity (HCT-116 [3]): inactive | Activity (HCT-116 [4]): inactive | Activity (HCT-116 [5]): inactive | Activity (HCT-116 [6]): inactive | Activity (HCT-116 [7]): Active | Activity [8]: Non-Toxic | Activity (HCT-116 [9]): Active | Activity (HCT-116 [10]): Active | Activity (HCT-116 [11]): Active | Activity (HCT-116 [12]): Active | Activity [13]: Non-Toxic | Activity (HCT-116 [14]): inactive | Activity (HCT-116 [15]): Dose-Dependent Effect | Activity (HCT-116 [16]): inactive | Activity (HCT-116 [17]): inactive | Activity (HCT-116 [18]): Active | Activity (HCT-116 [19]): Active | Activity (HCT-116 [20]): inactive | Activity (HCT-116 [21]): Active | Activity (HCT-116 [22]): Active | Activity (HCT-116 [23]): Active | Activity (HCT-116 [24]): Active | Activity (HCT-116 [25]): Active | Activity (HCT-116 [26]): inactive | Activity (HCT-116 [27]): Active | Activity (HCT-116 [28]): Active | Activity (HCT-116 [29]): Active | Activity (HCT-116 [30]): Active | Activity (HCT-116 [31]): Dose-Dependent Effect | Activity (HCT-116 [32]): inactive | Activity (HCT-116 [33]): inactive | IC50 (HCT-116 [34]): 5.87 µM | inhibition (HCT-116 [35]): Dose-Dependent Effect
